From PubChem BioAssay AID1963845 (Molecular Pharmacology Branch, DTP, NCI, 2024)
pIC50: −log10 of the molar value. Several values for one entry are separate records, joined by “and”; a condition that tells them apart may be missing. Identical values can stand only once.

Test system: 429239-143-T-J1-PDC complex spheroid viability
Assay: Anticancer human tumor 429239-143-T-J1-PDC patient-derived small cell lung carcinoma cell line growth inhibition [POLQ]
Settings: for viability, T/C: stronger effect = lower value
Method: Multicellular complex tumor spheroid response to Polymerase (POL) inhibitors (novobiocin, ART-558, RP6685) in combination with a variety of drugs and investigational agents in selected tumor cell lines
The POL inhibitors (novobiocin, ART-558, and RP6685) were evaluated both individually and in combination with standard of care and investigational anticancer small molecules within a complex spheroid model of solid tumors. . Complex spheroids include a stromal component modeled by human endothelial cells (HUVEC) and fibroblasts modeled by human mesenchymal stem cells (MSCs). The concentration ranges selected for each drug and investigational agent were based upon clinically achievable concentrations if the clinical Cmax of the agent was known.
Compounds. The drugs and investigational agents: novobiocin (NSC847541), ART-558 (NSC835418), RP-6685 (NSC848927), peposertib (NSC802822), ceralasertib (NSC780249), elimusertib (NSC800525), camonsertib (NSC841442), AZD-1390 (NSC803789), olaparib (NSC753686), talazoparib (NSC767125), rucaparib (NSC756644), sotorasib (NSC818433), MRTX-1133 (NSC836407), SN-38 (NSC673596), topotecan (NSC609699), epotoside (NSC141540), doxorubicin (NSC123127), gemcitabine (NSC613327), 5-fluorouracil (NSC19893), paclitaxel (NSC125973), vemurafenib (NSC761431), MSA-2 (NSC828583), SN-011 (NSC837082), adavosertib (NSC754352), prexasertib (NSC758257), carboplatin (NSC241240) and oxaliplatin (NSC266046), were obtained from the National Cancer Institute (NCI) Developmental Therapeutics Program Chemical Repository (21). The FDA-approved anticancer drug set is available from the Developmental Therapeutics Program at https://dtp.cancer.gov/organization/dscb/obtaining/. […] The stock solutions were prepared in dimethyl sulfoxide (DMSO, Sigma-Aldrich, St. Louis, MO, cat. D2650), except for the platinum compounds which were prepared in saline (Quality Biological, Gaithersburg, MD, cat. 114-055-101), at 800-fold the tested concentration and stored at -70 degrees C prior to their use. All drugs and investigational agents were tested over a range starting from a high concentration at or near the clinical Cmax and decreasing in half-log increments. If the clinical Cmax for an agent had not been determined, the highest concentration tested was 10 microM, except for SN-38, which was tested at a high concentration of 1 microM.
Cell Culture. All cells were maintained in an incubator at 37 degrees C and 5% CO2 with 95% humidity. The PDC lines were cultured according to standard operating procedures established by the NCI PDMR (https://pdmr.cancer.gov). Table 3 of the manuscript, lists the cell lines along with the number of the three cell types plated to form the mct-spheroids and media for tumor cell growth. After thawing, all PDC lines, except 997537-175-T-J1-PDC and 415267-285-R-J2-PDC, were cultured in Matrigel-coated flasks prepared with a working solution of 1X Ham's F-12 nutrient mix, without supplementation (Thermo Fisher Scientific, cat. 11765054), 100 U/mL penicillin-streptomycin (Thermo Fisher Scientific, cat. 15140122), and 2.5% Matrigel (Corning Inc., Corning, NY, cat. 354248) for the first three passages. The two PDC lines 997537-175-T-J1-PDC and 415267-285-R-J2-PDC were cultured on uncoated flasks. The 857933-349-R-J2-PDC line was cultured in 6C/Colon 1B media containing advanced DMEM/F-12 (Thermo Fisher Scientific, cat. 12634028), 10 mM HEPES (Thermo Fisher Scientific, cat. 15630080), 1X GlutaMAX supplement (Thermo Fisher Scientific, cat. 35050061), 0.1 mg/mL primocin (InvivoGen, San Diego, CA, cat. ant-pm-2), 10% defined fetal bovine serum, heat inactivated (HyClone Laboratories Inc., Logan, UT, cat. SH30070.03HI), 50% L-WRN conditioned media (ATCC, cat. CRL-3276), 1.25 mM N-Acetyl-L-cysteine (Sigma-Aldrich, cat. A9165), 10 mM nicotinamide (Sigma-Aldrich, cat. N0636), 1X B-27 supplement (Thermo Fisher Scientific, cat. 17504044), 1X N-2 supplement (Thermo Fisher Scientific, cat. […]
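Further: luminescence signal used as surrogate measure of viable cells; spheroids exposed to compounds for seven days before readout.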
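Wherever viability, T/C is given: 100% = DMSO vehicle control viability as luminescence relative to vehicle.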

SMILES: COC1C(OC(N)=O)C(O)C(Oc2ccc3c(O)c(NC(=O)c4ccc(O)c(CC=C(C)C)c4)c(=O)oc3c2C)OC1(C)C (stereo not drawn)
- viability, T/C (compound 0.0316 µM): 99.8% [middle of 13 runs]
- viability, T/C (compound 0.1 µM): 101% [middle of 13 runs]
- viability, T/C (compound 0.316 µM): 100% [middle of 13 runs]
- viability, T/C (compound 3.16 µM): 99.4% [middle of 13 runs]
- pIC50 (compound alone, run of 01/08/2024): < 5.00

SMILES: CC[C@@]1(O)C(=O)OCc2c1cc1n(c2=O)Cc2cc3c(CN(C)C)c(O)ccc3nc2-1 + COC1C(OC(N)=O)C(O)C(Oc2ccc3c(O)c(NC(=O)c4ccc(O)c(CC=C(C)C)c4)c(=O)oc3c2C)OC1(C)C
- pIC50 (curve of first compound, second compound 0.0316 µM): 7.87
- pIC50 (curve of first compound, second compound 0.1 µM): 7.80
- pIC50 (curve of first compound, second compound 0.316 µM): 7.82
- pIC50 (curve of first compound, second compound 1 µM): 7.78
- pIC50 (curve of first compound, second compound 3.16 µM): 7.87
- pIC50 (curve of first compound, second compound 10 µM): 7.79
- viability, T/C (second compound 0.0316 µM, first compound 0.000316 µM): 102%
- viability, T/C (second compound 0.0316 µM, first compound 0.001 µM): 101%
- viability, T/C (second compound 0.0316 µM, first compound 0.00316 µM): 86.5%
- viability, T/C (second compound 0.0316 µM, first compound 0.01 µM): 63%
- viability, T/C (second compound 0.0316 µM, first compound 0.0316 µM): 18.6%
- viability, T/C (second compound 0.0316 µM, first compound 0.1 µM): 19.8%
- viability, T/C (second compound 0.1 µM, first compound 0.000316 µM): 110%
- viability, T/C (second compound 0.1 µM, first compound 0.001 µM): 108%
- viability, T/C (second compound 0.1 µM, first compound 0.00316 µM): 88.7%
- viability, T/C (second compound 0.1 µM, first compound 0.01 µM): 72.9%
- viability, T/C (second compound 0.1 µM, first compound 0.0316 µM): 16.8%
- viability, T/C (second compound 0.1 µM, first compound 0.1 µM): 19%
- viability, T/C (second compound 0.316 µM, first compound 0.000316 µM): 98.4%
- viability, T/C (second compound 0.316 µM, first compound 0.001 µM): 97.4%
- viability, T/C (second compound 0.316 µM, first compound 0.00316 µM): 101%
- viability, T/C (second compound 0.316 µM, first compound 0.01 µM): 66.3%
- viability, T/C (second compound 0.316 µM, first compound 0.0316 µM): 20.4%
- viability, T/C (second compound 0.316 µM, first compound 0.1 µM): 19.7%
- viability, T/C (second compound 1 µM, first compound 0.000316 µM): 93.6%
- viability, T/C (second compound 1 µM, first compound 0.001 µM): 98%
- viability, T/C (second compound 1 µM, first compound 0.00316 µM): 83.7%
- viability, T/C (second compound 1 µM, first compound 0.01 µM): 73.8%
- viability, T/C (second compound 1 µM, first compound 0.0316 µM): 17.7%
- viability, T/C (second compound 1 µM, first compound 0.1 µM): 21.4%
- viability, T/C (second compound 3.16 µM, first compound 0.000316 µM): 108%
- viability, T/C (second compound 3.16 µM, first compound 0.001 µM): 93.4%
- viability, T/C (second compound 3.16 µM, first compound 0.00316 µM): 99.7%
- viability, T/C (second compound 3.16 µM, first compound 0.01 µM): 61.4%
- viability, T/C (second compound 3.16 µM, first compound 0.0316 µM): 18.5%
- viability, T/C (second compound 3.16 µM, first compound 0.1 µM): 18.4%
- viability, T/C (second compound 10 µM, first compound 0.000316 µM): 87.8%
- viability, T/C (second compound 10 µM, first compound 0.001 µM): 103%
- viability, T/C (second compound 10 µM, first compound 0.00316 µM): 91.1%
- viability, T/C (second compound 10 µM, first compound 0.01 µM): 71.1%
- viability, T/C (second compound 10 µM, first compound 0.0316 µM): 20.8%
- viability, T/C (second compound 10 µM, first compound 0.1 µM): 17.4%

SMILES: O=C(Nc1ccc(O)c(NS(=O)(=O)c2ccc(F)cc2)c1)c1ccc(-c2ccccc2)cc1
- viability, T/C (compound 0.0316 µM): 100% and 92.5% and 95.2%
- viability, T/C (compound 0.1 µM): 106% and 123% and 96.5%
- viability, T/C (compound 0.316 µM): 105% and 106% and 107%
- viability, T/C (compound 1 µM): 103% and 107% and 99.5%
- viability, T/C (compound 3.16 µM): 113% and 122% and 114%
- viability, T/C (compound 10 µM): 103% and 119% and 63.5%
- pIC50 (curve of compound): < 5.00

SMILES: CCc1cc2c(N3CCc4c(cc(Cn5ccnc5)cc4-c4cn(C)nc4C(F)(F)F)C3=O)cc(C)nc2c(OC)n1
- viability, T/C (compound 0.0316 µM): 97.3% and 95.1% and 89.2%
- viability, T/C (compound 0.1 µM): 77.4% and 91.2% and 89.8%
- viability, T/C (compound 0.316 µM): 63.9% and 85.3% and 90%
- viability, T/C (compound 1 µM): 48% and 81.4% and 78.2%
- viability, T/C (compound 3.16 µM): 42.7% and 76.8% and 69.8%
- viability, T/C (compound 10 µM): 38.6% and 45.6% and 43.8%
- pIC50 (curve of compound): 6.01 and 5.06 and 5.12

SMILES: O=C(c1cc(Cc2n[nH]c(=O)c3ccccc23)ccc1F)N1CCN(C(=O)C2CC2)CC1
- viability, T/C (compound 0.0316 µM): 95.1% and 91.7% and 93.1%
- viability, T/C (compound 0.1 µM): 82.3% and 93.9% and 102%
- viability, T/C (compound 0.316 µM): 68.2% and 72.8% and 97.3%
- viability, T/C (compound 1 µM): 69.8% and 78% and 84.5%
- viability, T/C (compound 3.16 µM): 30.4% and 29.6% and 69.6%
- viability, T/C (compound 10 µM): 16.1% and 16.5% and 9.45%
- pIC50 (curve of compound): 5.80 and 5.71 and 5.34
